Assay results as given in ChEMBL document CHEMBL3988442, “University of Dundee, Small-Polar-MMV Screening Library” (2021).

Key:
[1] = microbe, parasite or virus in culture; conditions: Mycobacterium tuberculosis, 96 h, read-out: pIC50 (converted)
[2] = microbe, parasite or virus in culture; conditions: Mycobacterium tuberculosis, 72 h, read-out: pIC50 (converted)

Row | SMILES | IC50 [1] | IC50 [2]
1 | CCC(C)(C)NC(=O)c1ccn(-c2ccccc2F)n1 | 350 µM | 361 µM
2 | CCc1cccc(S(=O)(=O)N2CC[C@H](N)C2)c1 | > 501 µM | 183 µM
3 | Cn1nccc1C(=O)NC1CCc2ccccc2OC1 (centres undefined) | > 501 µM | > 501 µM
4 | O=C1CNc2ncnc(N3CCN(c4ccccc4F)CC3)c2N1 | > 50.1 µM | > 50.1 µM
5 | CCC(C(=O)Nc1cc2c(cc1C)OCO2)N(C)C (centres undefined) | > 501 µM | > 501 µM
6 | CCCN1CCC(Nc2cc(-c3ccccc3)ccc2OC)CC1 | 32.9 µM | 23.4 µM
7 | CCNc1nnc(SC(C)C)s1 | 54.2 µM | 120 µM
8 | OC(CN1CCOC2(CCCC2)C1)c1ccccc1 (centres undefined) | 172 µM | 379 µM
9 | COc1ccc(C(=O)CCN(C)C)cc1OC | 285 µM | 276 µM
10 | O=C(COc1ccccc1Cl)NCC(=O)c1ccco1 | > 501 µM | 342 µM
11 | Cc1ccc(NC(C)C(=O)NCc2cccs2)cc1Cl (centres undefined) | 5.63 µM | 5.25 µM
12 | COc1ccccc1OCCn1c(C)c(C)oc1=O | > 50.1 µM | > 50.1 µM
13 | CNc1cccnc1N1CCCC1 | 41.3 µM | 22 µM
14 | CN(Cc1ccc2c(c1)OCO2)C(=O)Cc1cccs1 | 239 µM | 199 µM
15 | CN(C)C(C)(C)CNC(=O)NCCC1CCCCO1 (centres undefined) | > 501 µM | > 501 µM
16 | CN(CCCN)c1ccccc1F | 129 µM | 86.1 µM
17 | CC[C@H](N)C(=O)N(C)Cc1cccc(OC(F)(F)F)c1 | > 501 µM | 199 µM
18 | Cc1ccccc1OCC(O)CN1CCC[C@@H]1CO (some centres undefined) | > 501 µM | 280 µM
19 | Cc1ccc(N2CCN(C)c3ncccc3C2)nn1 | > 50.1 µM | > 50.1 µM
20 | COc1ccc(-c2cc(NCCO)nc(N)n2)cc1C | > 501 µM | 280 µM
21 | NCCNS(=O)(=O)c1ccc(F)c(Br)c1 | > 501 µM | > 501 µM

Row | SMILES | IC50 [1] | IC50 [2]
22 | Cc1cc(CNc2ccc(C(F)(F)F)cc2)no1 | 15.6 µM | 19.8 µM
23 | O=C(Nc1cccnc1N1CCC(CO)CC1)C1CC1 | 53.6 µM | > 501 µM
24 | O=C(Nc1nncs1)c1ccccn1 | 139 µM | 36.5 µM
25 | Cc1ccc(C(=O)N2CCCC(Nc3ccc(F)cc3)C2)cc1 (centres undefined) | 20.9 µM | 18.7 µM
26 | CC(C)[C@@H]1CN(C(=O)NCc2ccco2)C[C@H]1N(C)C | > 50.1 µM | > 50.1 µM
27 | OCCCC(Nc1ccccn1)c1ccccc1 (centres undefined) | 111 µM | 109 µM
28 | Cc1cccc(CN2C[C@H]3CC[C@@H]2CN(Cc2[nH]cnc2C)C3)n1 | > 50.1 µM | > 50.1 µM
29 | Cc1nn(C)c2nc(NCCSc3ncn[nH]3)sc12 | > 501 µM | > 501 µM
30 | O=C1NCC2(CCCN(C(=O)c3c[nH]nc3-c3cccs3)C2)O1 (centres undefined) | > 50.1 µM | > 50.1 µM
31 | O=C(Nc1ccccn1)C1Cc2ccccc2O1 (centres undefined) | 277 µM | 268 µM
32 | COC(=O)C(NC(=O)c1ccc(N(C)C)nc1)c1ccccc1 (centres undefined) | 10.2 µM | 33.2 µM
33 | CCCNC(=O)c1cc(C(C)C)nc(N2CCCC2)n1 | 41.7 µM | 11.5 µM
34 | Cc1nc2c(c(N3CCC(CCn4cccn4)CC3)n1)CCNCC2 | > 50.1 µM | > 50.1 µM
35 | CN(C)c1cc(C(=O)Nc2ccccc2C(=O)NC(C)(C)C)ccn1 | > 50.1 µM | > 50.1 µM
36 | CN(Cc1ccco1)C(=O)c1cccc(C#N)c1 | > 501 µM | > 501 µM
37 | COc1ccc(C(=O)NC(C)Cn2cccn2)c(O)c1 (centres undefined) | 276 µM | 256 µM
38 | CCCn1cnnc1-c1nc2c([nH]1)CC(c1ccc(Cl)cc1)CNC2=O (centres undefined) | 14.2 µM | 17.5 µM
39 | COc1ccc(CNC(=O)CCC2CCCO2)cn1 (centres undefined) | > 501 µM | 91.5 µM
40 | CCc1ccccc1OC1CN(C(=O)c2cccs2)C1 | 14.2 µM | 5.46 µM
41 | O=C(CCN1CCN(c2ccccn2)CC1)NC1CC1 | > 501 µM | > 501 µM
42 | CCS(=O)(=O)N(C)C(=O)CCc1c[nH]c2ccccc12 | 97.3 µM | 44.8 µM
